Experimental data reported in US20250288589A1, “PYRIDOPYRIMIDINES AND METHODS OF THEIR USE” (Kineta, Inc., priority 2021, published 2025).

Biological target: T1, full-length human PIKFYVE (Homo sapiens, UniProt Q9Y2I7, L932S/Q1183K/Q995L/S1033A/S696N/T998S)
T1 construct: A full-length human PIKFYVE [1-2098(end) amino acids and S696N, L932S, Q995L, T998S, S1033A and Q1183K; purchased Carna Biosciences; host or cells: baculovirus expression system
Experiment: PIKfyve biochemical assay (ADP-Glo Kinase assay, Carna Biosciences)
Details: GST-PIKFYVE, 10 μM to 3 nM in duplicate, read-out: hPIKfyve IC50
From the text: (§1) PIKfyve Biochemical Assay. The biochemical PIKFyve inhibition assays were run by Carna Biosciences according to proprietary methodology based on the Promega ADP-Glo™ Kinase assay. A full-length human PIKFYVE [1-2098(end) amino acids and S696N, L932S, Q995L, T998S, S1033A and Q1183K of the protein having the sequence set forth in NCBI Reference Sequence No. NP_055855.2] was expressed as N-terminal GST-fusion protein (265 kDa) using baculovirus expression system. GST-PIKFYVE was purified by using glutathione sepharose chromatography and used in an ADP-Glo™ Kinase assay (Promega). Reactions were set up by adding the test compound solution, substrate solution, ATP solution and kinase solution, each at 4× final concentrations. Reactions were prepared with assay buffer (50 mM MOPS, 1 mM DTT, pH7.2), mixed, and incubated in black 384 well polystyrene plates for 1 hour at room temperature. ADP-Glo™ reagent was then added for 40 minutes, followed by kinase detection reagent for an additional 40 minutes. The kinase activity was evaluated by detecting relative light units on a luminescence plate reader. Samples were run in duplicate from 10 μM to 3 nM. […] IC50 values were calculated from concentration vs % inhibition curves by fitting to a four-parameter logistic curve.
as §1, with “The” for “PIKfyve Biochemical Assay. The”, “accession number” for “the protein having the sequence set forth in NCBI Reference Sequence No.”, “uM” for “μM”

T1 sequence (Q9Y2I7 whole entry S696N/L932S/Q995L/T998S/S1033A/Q1183K): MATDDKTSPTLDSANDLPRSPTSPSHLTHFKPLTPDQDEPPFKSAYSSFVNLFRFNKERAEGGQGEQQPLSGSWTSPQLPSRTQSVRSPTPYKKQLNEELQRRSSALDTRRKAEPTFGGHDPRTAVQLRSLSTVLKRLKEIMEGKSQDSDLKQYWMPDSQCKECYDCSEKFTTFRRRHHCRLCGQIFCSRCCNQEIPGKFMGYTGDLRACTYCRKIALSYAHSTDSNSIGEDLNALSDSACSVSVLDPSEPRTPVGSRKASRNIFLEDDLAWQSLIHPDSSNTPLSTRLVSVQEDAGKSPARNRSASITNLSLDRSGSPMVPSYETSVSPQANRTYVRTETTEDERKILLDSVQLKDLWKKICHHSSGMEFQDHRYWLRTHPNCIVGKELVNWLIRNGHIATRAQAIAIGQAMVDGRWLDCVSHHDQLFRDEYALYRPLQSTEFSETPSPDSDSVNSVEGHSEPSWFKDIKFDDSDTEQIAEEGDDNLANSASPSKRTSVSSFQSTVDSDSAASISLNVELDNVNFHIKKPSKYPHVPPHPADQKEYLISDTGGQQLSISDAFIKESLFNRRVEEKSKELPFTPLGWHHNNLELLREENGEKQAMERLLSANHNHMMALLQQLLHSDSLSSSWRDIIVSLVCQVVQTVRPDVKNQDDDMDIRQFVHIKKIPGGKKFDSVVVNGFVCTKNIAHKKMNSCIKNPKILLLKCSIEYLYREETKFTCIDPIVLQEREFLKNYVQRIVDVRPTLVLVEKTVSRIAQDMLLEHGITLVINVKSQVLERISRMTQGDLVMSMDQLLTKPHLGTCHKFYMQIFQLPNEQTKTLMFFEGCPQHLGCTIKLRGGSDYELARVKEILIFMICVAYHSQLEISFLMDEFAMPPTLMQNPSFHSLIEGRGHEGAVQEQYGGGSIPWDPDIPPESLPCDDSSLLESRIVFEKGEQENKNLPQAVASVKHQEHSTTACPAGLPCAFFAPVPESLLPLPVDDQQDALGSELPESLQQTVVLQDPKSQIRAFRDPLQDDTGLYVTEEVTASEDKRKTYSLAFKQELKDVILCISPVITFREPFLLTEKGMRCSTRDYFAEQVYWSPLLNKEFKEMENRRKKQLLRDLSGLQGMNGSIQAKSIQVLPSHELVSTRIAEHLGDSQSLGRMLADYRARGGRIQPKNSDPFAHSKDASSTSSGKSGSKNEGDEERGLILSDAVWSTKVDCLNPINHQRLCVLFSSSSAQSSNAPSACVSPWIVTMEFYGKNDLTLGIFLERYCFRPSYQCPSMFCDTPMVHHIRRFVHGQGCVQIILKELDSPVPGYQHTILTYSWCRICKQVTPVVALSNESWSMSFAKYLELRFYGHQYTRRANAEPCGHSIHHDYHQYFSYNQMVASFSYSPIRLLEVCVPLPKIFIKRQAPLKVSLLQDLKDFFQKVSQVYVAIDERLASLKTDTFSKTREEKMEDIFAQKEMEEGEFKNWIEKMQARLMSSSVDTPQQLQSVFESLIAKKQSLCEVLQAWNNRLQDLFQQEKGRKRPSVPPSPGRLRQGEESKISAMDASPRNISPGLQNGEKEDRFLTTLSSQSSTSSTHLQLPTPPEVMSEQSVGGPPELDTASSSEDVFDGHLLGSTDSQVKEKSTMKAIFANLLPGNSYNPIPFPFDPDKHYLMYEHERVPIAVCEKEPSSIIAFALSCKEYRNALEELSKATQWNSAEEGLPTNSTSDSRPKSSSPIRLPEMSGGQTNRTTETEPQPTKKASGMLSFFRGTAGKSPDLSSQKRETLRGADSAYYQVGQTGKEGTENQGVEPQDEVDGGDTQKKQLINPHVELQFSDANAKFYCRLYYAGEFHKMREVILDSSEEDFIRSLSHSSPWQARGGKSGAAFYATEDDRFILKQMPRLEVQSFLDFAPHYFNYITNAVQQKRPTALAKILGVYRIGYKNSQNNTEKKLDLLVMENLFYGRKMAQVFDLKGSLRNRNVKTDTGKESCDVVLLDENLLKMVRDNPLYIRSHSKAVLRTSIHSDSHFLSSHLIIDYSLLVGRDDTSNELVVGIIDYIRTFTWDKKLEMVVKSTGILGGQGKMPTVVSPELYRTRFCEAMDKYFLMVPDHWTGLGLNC

Row | SMILES | IC50
1 | c1cncc(-c2ccn(-c3nc(N4CCOCC4)c4ncccc4n3)n2)c1 [Compound 13, 4-(2-(3-(pyridin-3-yl)-1H-pyrazol-1-yl)pyrido[3,2-d]pyrimidin-4-yl)morpholine] | 1000 to 10000 nM
2 | c1cnc2c(N3CCOCC3)nc(-n3ccc(-c4ccncc4)n3)nc2c1 [Compound 14, 4-(2-(3-(pyridin-4-yl)-1H-pyrazol-1-yl)pyrido[3,2-d]pyrimidin-4-yl)morpholine] | 1000 to 10000 nM
3 | COc1ccc(-c2ccccc2)nc1-c1nc(N2CCOCC2)c2ncccc2n1 [Compound 107, 4-(2-(3-methoxy-6-phenylpyridin-2-yl)pyrido[3,2-d]pyrimidin-4-yl)morpholine] | 1000 to 10000 nM
4 | Oc1cccc(/C=N/Nc2nc(N3CCOCC3)c3ncccc3n2)c1 [Compound 114, (E)-3-((2-(4-morpholinopyrido[3,2-d]pyrimidin-2-yl)hydrazono)methyl)phenol] | 100 to 1000 nM
5 | O=C1N(c2nc(N3CCOCC3)c3ncccc3n2)CCN1C1CCCC1 [Compound 78, 1-cyclopentyl-3-(4-morpholinopyrido[3,2-d]pyrimidin-2-yl)imidazolidin-2-one] | > 10000 nM
6 | CN1CCC(c2nccc(-c3nc(N4CCOCC4)c4ncccc4n3)n2)CC1 [Compound 85, 4-[2-[2-(1-methyl-4-piperidyl)pyrimidin-4-yl]pyrido[3,2-d]pyrimidin-4-yl]morpholine] | > 10000 nM
7 | CC(C)c1ccn(-c2nc(N3CCOCC3)c3ncccc3n2)n1 [Compound 18, 4-(2-(3-isopropyl-1H-pyrazol-1-yl)pyrido[3,2-d]pyrimidin-4-yl)morpholine] | > 10000 nM
8 | Oc1cccc(-c2nccc(-c3nc(N4CCOCC4)c4ncccc4n3)n2)c1 [Compound 101, 3-(4-(4-morpholinopyrido[3,2-d]pyrimidin-2-yl)pyrimidin-2-yl)phenol] | 100 to 1000 nM
9 | COc1cncc(-c2cnc3c(N4CCOCC4)nc(-c4ccn(CC(F)(F)F)n4)nc3c2)c1 [Compound 65, 4-(7-(5-methoxypyridin-3-yl)-2-(1-(2,2,2-trifluoroethyl)-1H-pyrazol-3-yl)pyrido[3,2-d]pyrimidin-4-yl)morpholine] | 1000 to 10000 nM
10 | FC(F)(F)Cn1ccc(-c2nc(N3CCOCC3)c3ncccc3n2)n1 [Compound 68, 4-(2-(1-(2,2,2-trifluoroethyl)-1H-pyrazol-3-yl)pyrido[3,2-d]pyrimidin-4-yl)morpholine] | 1000 to 10000 nM
11 | c1cnc2c(N3CCOCC3)nc(-n3ccc(CC4CCNC4)n3)nc2c1 (centres unmarked) [Compound 64, 4-[2-[3-(pyrrolidin-3-ylmethyl)pyrazol-1-yl]pyrido[3,2-d]pyrimidin-4-yl]morpholine] | 1000 to 10000 nM
12 | Cc1cc(-c2ccccc2)nn1-c1nc(N2CCOCC2)c2ncccc2n1 [Compound 39, 4-(2-(5-methyl-3-phenyl-1H-pyrazol-1-yl)pyrido[3,2-d]pyrimidin-4-yl)morpholine] | > 10000 nM

Further lines, results first:

Row | IC50 | SMILES
13 | < 10 nM | COc1cccc(-c2ccn(-c3nc(N4CCOCC4)c4ncc(C5=CCOCC5)cc4n3)n2)c1 [Compound 16, 4-(7-(3,6-dihydro-2H-pyran-4-yl)-2-(3-(3-methoxyphenyl)-1H-pyrazol-1-yl)pyrido[3,2-d]pyrimidin-4-yl)morpholine]
14 | 10 to 100 nM | CN1CCN(c2cnc3c(N4CCOCC4)nc(-n4cc(-c5ccccc5)cn4)nc3c2)C(=O)C1 [Compound 56, 4-methyl-1-(4-morpholino-2-(4-phenyl-1H-pyrazol-1-yl)pyrido[3,2-d]pyrimidin-7-yl)piperazin-2-one]
15 | < 10 nM | c1ccc(-c2nccc(-c3nc(N4CCOCC4)c4ncc(-c5ccncc5)cc4n3)n2)cc1 [Compound 104, 4-(2-(2-phenylpyrimidin-4-yl)-7-(pyridin-4-yl)pyrido[3,2-d]pyrimidin-4-yl)morpholine]
16 | 10 to 100 nM | Fc1ccc(-c2ccn(-c3nc(N4CCOCC4)c4ncc(C5CCOCC5)cc4n3)n2)cc1 [Compound 20, 4-[2-[3-(4-fluorophenyl)pyrazol-1-yl]-7-tetrahydropyran-4-yl-pyrido[3,2-d]pyrimidin-4-yl]morpholine]
17 | 100 to 1000 nM | COc1ccc(Cc2ccn(-c3nc(N4CCOCC4)c4ncc(C5=CCOCC5)cc4n3)n2)cc1 [Compound 35, 4-(7-(3,6-dihydro-2H-pyran-4-yl)-2-(3-(4-methoxybenzyl)-1H-pyrazol-1-yl)pyrido[3,2-d]pyrimidin-4-yl)morpholine]
18 | 10 to 100 nM | c1ccc(-c2ccn(-c3nc(N4CCOCC4)c4ncc(C5CC5)cc4n3)n2)cc1 [Compound 55, 4-[7-cyclopropyl-2-(3-phenylpyrazol-1-yl)pyrido[3,2-d]pyrimidin-4-yl]morpholine]
19 | 100 to 1000 nM | COc1ccc(-c2ccn(-c3nc(N4CCOCC4)c4ncc(C5CCOCC5)cc4n3)n2)cc1 [Compound 30, 4-(2-(3-(4-methoxyphenyl)-1H-pyrazol-1-yl)-7-(tetrahydro-2H-pyran-4-yl)pyrido[3,2-d]pyrimidin-4-yl)morpholine]
20 | 100 to 1000 nM | COc1cnc(-c2cccc(C)c2)nc1-c1nc(N2CCOCC2)c2ncccc2n1 [Compound 102, 4-(2-(5-methoxy-2-m-tolylpyrimidin-4-yl)pyrido[3,2-d]pyrimidin-4-yl)morpholine]
21 | 100 to 1000 nM | CC1COCCN1c1nc(-n2ccc(-c3ccccc3)n2)nc2cccnc12 (centres unmarked) [Compound 31, 3-methyl-4-(2-(3-phenyl-1H-pyrazol-1-yl)pyrido[3,2-d]pyrimidin-4-yl)morpholine]
22 | 100 to 1000 nM | c1ccc(-c2ccn(-c3nc(N4CCOCC4)c4ncc(C5CCOCC5)cc4n3)n2)nc1 [Compound 21, 4-[2-[3-(2-pyridyl)pyrazol-1-yl]-7-tetrahydropyran-4-yl-pyrido[3,2-d]pyrimidin-4-yl]morpholine]
23 | 10 to 100 nM | c1ccc(-c2ccn(-c3nc(N4CCOCC4)c4ncc(C5CCNCC5)cc4n3)n2)cc1 [Compound 36, 4-(2-(3-phenyl-1H-pyrazol-1-yl)-7-(piperidin-4-yl)pyrido[3,2-d]pyrimidin-4-yl)morpholine]
24 | 10 to 100 nM | Fc1cccc(-c2ccn(-c3nc(N4CCOCC4)c4ncc(C5CCOCC5)cc4n3)n2)c1 [Compound 22, 4-[2-[3-(3-fluorophenyl)pyrazol-1-yl]-7-tetrahydropyran-4-yl-pyrido[3,2-d]pyrimidin-4-yl]morpholine]
25 | 10 to 100 nM | c1ccc(-c2ccn(-c3nc(N4CCOCC4)c4ncc(N5CCOCC5)cc4n3)n2)cc1 [Compound 41, 4-[4-morpholino-2-(3-phenylpyrazol-1-yl)pyrido[3,2-d]pyrimidin-7-yl]morpholine]
26 | 10 to 100 nM | COc1cccc(-c2ccn(-c3nc(N4CCOCC4)c4ncccc4n3)n2)c1 [Compound 27, 4-(2-(3-(3-methoxyphenyl)-1H-pyrazol-1-yl)pyrido[3,2-d]pyrimidin-4-yl)morpholine]
27 | 10 to 100 nM | c1ccc(-c2nccc(-c3nc(N4CCOCC4)c4ncc(N5CCOCC5)cc4n3)n2)cc1 [Compound 95, 4,4′-(2-(2-phenylpyrimidin-4-yl)pyrido[3,2-d]pyrimidine-4,7-diyl)dimorpholine]
28 | 10 to 100 nM | Cc1cccc(-c2ncc(O)c(-c3nc(N4CCOCC4)c4ncccc4n3)n2)c1 [Compound 103, 4-(4-morpholinopyrido[3,2-d]pyrimidin-2-yl)-2-m-tolylpyrimidin-5-ol]
29 | 10 to 100 nM | c1ccc(-c2nccc(-c3nc(N4CCOCC4)c4ncc(-c5cc[nH]n5)cc4n3)n2)cc1 [Compound 105, 4-(2-(2-phenylpyrimidin-4-yl)-7-(1H-pyrazol-3-yl)pyrido[3,2-d]pyrimidin-4-yl)morpholine]
